Experimental data from ChEMBL document CHEMBL1201862, “PubChem BioAssay data set” (2004).
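Test compounds were applied to cells in 96-well plates for 48 hours at 5 doses. GI50 is the concentration that inhibits growth by half.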 The source made the active and inactive calls. Cut-off read from the data, not from the text of the source: active = GI50 up to about 1.1 µM and inactive = higher.

Tests used:
Assay in all cases: DTP human tumour cell line panel, 48 h
A498 = test system: A498
A549 = test system: A549
ACHN = test system: ACHN
BT-549 = test system: BT-549
CAKI-1 = test system: CAKI-1
HCC 2998 = test system: HCC 2998
HCT-15 = test system: HCT-15
HL-60 = test system: HL-60
HOP-62 = test system: HOP-62
HT-29 = test system: HT-29
Hs-578T = test system: Hs-578T
K562 = test system: K562
LOX IMVI = test system: LOX IMVI
MDA-MB-435 = test system: MDA-MB-435
MDA-N = test system: MDA-N
Malme-3M = test system: Malme-3M
NCI-H226 = test system: NCI-H226
NCI-H23 = test system: NCI-H23
NCI-H522 = test system: NCI-H522
NCI/ADR-RES = test system: NCI/ADR-RES
OVCAR-4 = test system: OVCAR-4
OVCAR-5 = test system: OVCAR-5
RPMI-8226 = test system: RPMI-8226
SF-268 = test system: SF-268
SF-295 = test system: SF-295
SF-539 = test system: SF-539
SK-MEL-28 = test system: SK-MEL-28
SK-MEL-5 = test system: SK-MEL-5
SN12C = test system: SN12C
SNB-75 = test system: SNB-75
SR = test system: SR
SW-620 = test system: SW-620
TK-10 = test system: TK-10
UACC-257 = test system: UACC-257
786-0 = test system: 786-0
CCRF-CEM = test system: CCRF-CEM
COLO 205 = test system: COLO 205
EKVX = test system: EKVX
HCT-116 = test system: HCT-116
HOP-92 = test system: HOP-92
IGROV-1 = test system: IGROV-1
KM12 = test system: KM12
M14 = test system: M14
MCF7 = test system: MCF7
MDA-MB-231 = test system: MDA-MB-231
MOLT-4 = test system: MOLT-4
NCI-H460 = test system: NCI-H460
OVCAR-3 = test system: OVCAR-3
OVCAR-8 = test system: OVCAR-8
PC-3 = test system: PC-3
RXF 393 = test system: RXF 393
SK-MEL-2 = test system: SK-MEL-2
SK-OV-3 = test system: SK-OV-3
SNB-19 = test system: SNB-19
T47D = test system: T47D
U-251 = test system: U-251
UACC-62 = test system: UACC-62
UO-31 = test system: UO-31

`CC[C@@H](CCCC[C@@H]1CC[C@H]2CC(=O)C[C@@H]12)OC` was tested, and the GI50 (A498) was > 100 µM (inactive), the GI50 (A549) was > 100 µM (inactive) and the GI50 (ACHN) was > 100 µM (inactive). The GI50 (BT-549) was 66.7 µM (inactive), the GI50 (CAKI-1) was > 100 µM (inactive) and the GI50 (HCC 2998) was > 100 µM (inactive). For the same compound, the GI50 (HCT-15) was greater than 100 µM, the GI50 (HL-60) was 43.2 µM (inactive) and the GI50 (HOP-62) was > 100 µM (inactive). The GI50 (HT-29) was > 100 µM (inactive), the GI50 (Hs-578T) was > 100 µM (inactive) and the GI50 (K562) was 30.8 µM (inactive). For the same compound, the GI50 (LOX IMVI) was > 100 µM (inactive), the GI50 (MDA-MB-435) was > 100 µM (inactive) and the GI50 (MDA-N) was > 100 µM (inactive). The GI50 (Malme-3M) was > 100 µM (inactive), the GI50 (NCI-H226) was > 100 µM (inactive) and the GI50 (NCI-H23) was > 100 µM (inactive). The GI50 (NCI-H522) was > 100 µM (inactive), the GI50 (NCI/ADR-RES) was 99.5 µM (inactive) and the GI50 (OVCAR-4) was > 100 µM (inactive). The GI50 (OVCAR-5) was > 100 µM (inactive), the GI50 (RPMI-8226) was > 100 µM (inactive) and the GI50 (SF-268) was > 100 µM (inactive). For the same compound, the GI50 (SF-295) was > 100 µM (inactive), the GI50 (SF-539) was > 100 µM (inactive) and the GI50 (SK-MEL-28) was > 100 µM (inactive). For the same compound, the GI50 (SK-MEL-5) was 85.1 µM (inactive), the GI50 (SN12C) was > 100 µM (inactive) and the GI50 (SNB-75) was > 100 µM (inactive). For the same compound, the GI50 (SR) was > 100 µM (inactive), the GI50 (SW-620) was > 100 µM (inactive) and the GI50 (TK-10) was > 100 µM (inactive). For the same compound, the GI50 (UACC-257) was 69.5 µM (inactive).

With `Nc1nc(NCc2ccccc2)cc(NCc2ccccc2)n1` the GI50 (786-0) was 4.92 µM (inactive), the GI50 (A498) was 0.668 µM (active) and the GI50 (A549) was 9.48 µM (inactive). The GI50 (ACHN) was 7.26 µM (inactive), the GI50 (BT-549) was 7.55 µM (inactive) and the GI50 (CAKI-1) was 2.64 µM (inactive). For the same compound, the GI50 (CCRF-CEM) was 4.24 µM (inactive), the GI50 (COLO 205) was 2.97 µM (inactive) and the GI50 (EKVX) was 9.93 µM (inactive). The GI50 (HCC 2998) was 8.95 µM (inactive), the GI50 (HCT-116) was 3.45 µM (inactive) and the GI50 (HCT-15) was 3.52 µM. For the same compound, the GI50 (HL-60) was 37.8 µM (inactive), the GI50 (HOP-62) was 12.8 µM (inactive) and the GI50 (HOP-92) was 5.38 µM (inactive). The GI50 (HT-29) was 2.88 µM (inactive), the GI50 (Hs-578T) was 2.86 µM (inactive) and the GI50 (IGROV-1) was 4.44 µM (inactive). For the same compound, the GI50 (K562) was 5.75 µM (inactive), the GI50 (KM12) was 4.28 µM (inactive) and the GI50 (LOX IMVI) was 4.23 µM (inactive). The GI50 (M14) was 10.5 µM (inactive), the GI50 (MCF7) was 2.59 µM (inactive) and the GI50 (MDA-MB-231) was 3.49 µM (inactive). The GI50 (MDA-MB-435) was 2.48 µM (inactive), the GI50 (MDA-N) was 1.14 µM (inactive) and the GI50 (MOLT-4) was 7.18 µM (inactive). The GI50 (Malme-3M) was 5.66 µM (inactive), the GI50 (NCI-H226) was 7.5 µM (inactive) and the GI50 (NCI-H23) was 5 µM (inactive). The GI50 (NCI-H460) was 4.73 µM (inactive), the GI50 (NCI-H522) was 4.24 µM (inactive) and the GI50 (NCI/ADR-RES) was 3.23 µM (inactive). For the same compound, the GI50 (OVCAR-3) was 3.69 µM (inactive), the GI50 (OVCAR-4) was 9.89 µM (inactive) and the GI50 (OVCAR-5) was 16.9 µM (inactive). For the same compound, the GI50 (OVCAR-8) was 4.11 µM (inactive), the GI50 (PC-3) was 3.64 µM (inactive) and the GI50 (RPMI-8226) was 3.06 µM (inactive). The GI50 (RXF 393) was 6.31 µM (inactive), the GI50 (SF-268) was 4 µM (inactive) and the GI50 (SF-295) was 4.91 µM (inactive). The GI50 (SF-539) was 3.45 µM (inactive), the GI50 (SK-MEL-28) was 12 µM (inactive) and the GI50 (SK-MEL-2) was 8.81 µM (inactive). For the same compound, the GI50 (SK-MEL-5) was 3.71 µM (inactive), the GI50 (SK-OV-3) was 9.08 µM (inactive) and the GI50 (SN12C) was 4.57 µM (inactive). The GI50 (SNB-19) was 8.39 µM (inactive), the GI50 (SNB-75) was 3.23 µM (inactive) and the GI50 (SR) was 2.72 µM (inactive). For the same compound, the GI50 (SW-620) was 5.21 µM (inactive), the GI50 (T47D) was 4.48 µM (inactive) and the GI50 (TK-10) was 8.02 µM (inactive). For the same compound, the GI50 (U-251) was 5.14 µM (inactive), the GI50 (UACC-257) was 5.69 µM (inactive) and the GI50 (UACC-62) was 3.67 µM (inactive). The GI50 (UO-31) was 6.31 µM (inactive).
